# Measurements as given in US12448369B2 (Edgewise Therapeutics, Inc., priority 2023, dated 2025).
# Marks after values point to notes of the source that are not given here.
# Columns and labels:
# [1] = test system: Rabbit Psoas myofibrils (skeletal myosin ATPase); assay: Myofibril ATPase assay, rabbit psoas (skeletal) myofibrils; format: biochemical; settings: rabbit psoas myofibrils
# Outline: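 Myofibrils homogenized in Triton X-100 buffer were assayed in pH 7.0 PIPES with defined Ca2+/EGTA. Myosin-driven ADP formation was coupled to NADH oxidation, with depletion monitored at 340 nm. Each value is the concentration that lowers activity to 75% of vehicle or, for activators, raises it to 125%.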
# [2] = test system: Porcine atria myofibrils (atrial myosin ATPase); assay: Myofibril ATPase assay, porcine atria myofibrils; format: biochemical; settings: porcine atria myofibrils
# Outline: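 Values are Y75 (concentration cutting ATPase activity to 75% of vehicle) or Y125 (raising it to 125%), taken from 4-parameter logistic fits. Rates come from NADH disappearance at 340 nm in a PK/LDH-coupled assay with porcine atria myofibrils.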
# [3] = molecular target: T1, Porcine ventricle myofibrils (ventricular myosin ATPase) (Sus scrofa, UniProt P79293); assay: Myofibril ATPase assay, porcine ventricle myofibrils; format: biochemical, porcine (Yucatan minipigs); settings: porcine ventricle myofibrils
# T1 construct: Myofibrils from porcine cardiac muscle was isolated from the left ventricle of Yucatan minipigs; tissue Exemplar Genetics; host or cells: left ventricle of Yucatan minipigs, myofibrils prepared in house
# T1 sequence (P79293 whole entry): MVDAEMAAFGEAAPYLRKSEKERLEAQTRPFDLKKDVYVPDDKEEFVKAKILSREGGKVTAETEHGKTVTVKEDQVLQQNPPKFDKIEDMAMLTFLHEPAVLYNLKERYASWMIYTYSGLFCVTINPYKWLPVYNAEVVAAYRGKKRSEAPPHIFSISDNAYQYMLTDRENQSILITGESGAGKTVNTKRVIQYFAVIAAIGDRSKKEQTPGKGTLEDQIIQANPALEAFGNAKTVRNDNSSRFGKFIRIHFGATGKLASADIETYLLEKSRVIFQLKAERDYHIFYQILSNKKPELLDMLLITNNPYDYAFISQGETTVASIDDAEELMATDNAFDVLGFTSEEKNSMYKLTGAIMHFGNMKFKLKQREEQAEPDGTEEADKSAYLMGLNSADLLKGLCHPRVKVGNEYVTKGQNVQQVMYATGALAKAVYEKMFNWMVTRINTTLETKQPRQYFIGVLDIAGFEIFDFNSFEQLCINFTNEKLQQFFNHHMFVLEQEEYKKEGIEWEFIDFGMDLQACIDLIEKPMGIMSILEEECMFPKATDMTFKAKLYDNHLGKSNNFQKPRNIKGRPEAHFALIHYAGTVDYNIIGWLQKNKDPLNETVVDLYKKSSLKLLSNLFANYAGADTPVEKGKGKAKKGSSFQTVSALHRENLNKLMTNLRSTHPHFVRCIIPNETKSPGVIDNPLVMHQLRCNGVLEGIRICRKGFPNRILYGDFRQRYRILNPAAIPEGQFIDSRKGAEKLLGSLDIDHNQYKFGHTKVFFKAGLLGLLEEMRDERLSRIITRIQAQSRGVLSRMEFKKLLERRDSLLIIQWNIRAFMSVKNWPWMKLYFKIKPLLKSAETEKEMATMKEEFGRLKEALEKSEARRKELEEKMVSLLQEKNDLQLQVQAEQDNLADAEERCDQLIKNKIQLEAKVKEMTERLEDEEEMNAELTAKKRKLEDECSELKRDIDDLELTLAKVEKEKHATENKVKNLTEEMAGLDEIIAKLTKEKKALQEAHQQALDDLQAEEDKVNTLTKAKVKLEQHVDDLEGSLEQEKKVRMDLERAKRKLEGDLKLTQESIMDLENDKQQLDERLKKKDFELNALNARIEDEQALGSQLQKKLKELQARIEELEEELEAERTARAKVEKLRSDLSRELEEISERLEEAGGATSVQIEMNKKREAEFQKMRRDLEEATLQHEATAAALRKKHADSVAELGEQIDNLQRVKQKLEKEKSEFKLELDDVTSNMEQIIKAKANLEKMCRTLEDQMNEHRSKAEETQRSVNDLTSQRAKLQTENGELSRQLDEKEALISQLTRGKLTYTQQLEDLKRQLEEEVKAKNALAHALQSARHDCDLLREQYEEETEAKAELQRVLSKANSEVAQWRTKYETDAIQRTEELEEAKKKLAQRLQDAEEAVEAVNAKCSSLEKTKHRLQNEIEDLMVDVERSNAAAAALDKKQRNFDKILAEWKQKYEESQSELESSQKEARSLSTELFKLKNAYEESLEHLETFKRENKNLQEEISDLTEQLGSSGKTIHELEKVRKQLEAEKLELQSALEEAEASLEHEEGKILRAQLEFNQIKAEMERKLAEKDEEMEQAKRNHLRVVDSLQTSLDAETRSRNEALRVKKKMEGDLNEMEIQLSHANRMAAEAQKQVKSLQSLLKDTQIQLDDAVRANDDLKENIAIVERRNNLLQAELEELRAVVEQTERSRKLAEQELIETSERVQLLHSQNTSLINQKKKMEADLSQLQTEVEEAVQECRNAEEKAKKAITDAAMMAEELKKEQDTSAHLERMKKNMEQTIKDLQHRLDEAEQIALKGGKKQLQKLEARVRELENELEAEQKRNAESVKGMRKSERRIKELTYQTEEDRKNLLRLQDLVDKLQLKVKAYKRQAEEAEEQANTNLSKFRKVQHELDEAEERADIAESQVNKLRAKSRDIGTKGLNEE
# Outline: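 In a coupled enzyme format, ADP from myofibril ATPase drives NADH oxidation, monitored kinetically at 340 nm for 75 min using minipig ventricle myofibrils. Effective concentrations giving 25% loss or gain of activity relative to vehicle were calculated from 4-parameter fits.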
# [4] = Y75 value (75% activity relative to no compound)
# [5] = ‡ Y125 value, not a Y75 value (125% activity relative to no compound)
SMILES,Skeletal EC25 ([1]; Y75 value (no ‡ mark)) [µM],Atrial EC25 ([2]; Y75 value (no ‡ mark)) [nM],Ventricular EC25 ([3]; Y75 value (no ‡ mark)) [µM],Skeletal EC25 ([1]; Y75 value) [µM],"Atrial EC25 [2, 4] [nM]",Ventricular EC25 ([3]; Y75 value) [µM],also measured
"Cc1nc(C#N)cnc1[C@@H](C)NC(=O)Cc1c(C)c2c(C#N)c(F)ccc2[nH]c1=O (single isomer, unassigned) [compound 1]",0.11,70,0.14,,,,
Cc1cnncc1[C@@H](C)NC(=O)Cc1c(C)c2c(C)nccc2[nH]c1=O [compound 480],,,,33.82,100000,100.00,
Cc1c(CC(=O)N[C@@H](C)c2ccc(C#N)cn2)c(=O)[nH]c2ccc(F)c(F)c12 [compound 46],0.02,240,0.12,,,,
COC[C@H](NC(=O)Cc1c(C)c2c(C#N)nccc2[nH]c1=O)c1ncc(F)cc1F [compound 160],,,,0.03,130,2.23,
"C[C@@H](NC(=O)Cc1c(C2CC2)c2cc(F)ccc2[nH]c1=O)c1ncc(C#N)cn1 (single isomer, unassigned) [compound 2063]",0.50,210,100.00,,,,
"Cc1c(C2(C(=O)N[C@H](C)c3ncc(C#N)cc3F)CC2)c(=O)[nH]c2ccc(F)c(C#N)c12 (single isomer, unassigned) [compound 2523]",,190,0.74,,,,"Skeletal EC25 [1, 5]: 100.00‡ μM"
"Cc1nccc2[nH]c(=O)c(CC(=O)N[C@H]3COc4cc(F)cc(F)c43)c(C)c12 (single isomer, unassigned) [compound 289]",,,,2.54,28000,100.00,
Cc1c(CC(=O)N[C@@H](C)c2ccc(F)cc2F)c(=O)[nH]c2ccnc(OCC(C)C)c12 [compound 371],,,,0.37,3040,100.00,
CCN(CC)c1nccc2[nH]c(=O)c(CC(=O)N[C@@H](C)c3ccc(F)cc3F)c(C)c12 [compound 343],,,,1.55,2390,9.62,
"Cc1cc(F)cnc1[C@@H](C)NC(=O)C1(c2cc3c(F)c(F)ccc3[nH]c2=O)CC1 (single isomer, unassigned) [compound 4805]",1.91,1660,100.00,,,,
Cc1c(CC(=O)N[C@H](C)c2ccc(C#N)cn2)c(=O)[nH]c2ccc(OC(F)(F)F)nc12 [compound 449],,,,100.00,100000,100.00,
Cc1c(CC(=O)N[C@H](C)c2ccc(C#N)cn2)c(=O)[nH]c2cc(F)ccc12 [compound 1072],100.00,17570,36.86,,,,
Cc1c(CC(=O)N[C@H](CO)c2ccc(C#N)cc2F)c(=O)[nH]c2ccc(C#N)nc12 [compound 220],,,,100.00,100000,100.00,
"Cc1c(CC(=O)N[C@H](C)c2ncc(C#N)cc2F)c(=O)[nH]c2ccnc(C(F)(F)F)c12 (single isomer, unassigned) [compound 226]",,,,0.27,7580,100.00,
"C[C@H](NC(=O)Cc1cc2c(C(F)(F)F)c(F)ccc2[nH]c1=O)c1ncc(C#N)cn1 (single isomer, unassigned) [compound 2010]",0.66,1250,3.45,,,,
Cc1c(CC(=O)N[C@@H](C)c2ccc(F)cn2)c(=O)[nH]c2cccc(F)c12 [compound 44],0.05,210,1.97,,,,

SMILES,Skeletal EC25 ([1]; Y75 value (no ‡ mark)) [µM],Atrial EC25 ([2]; Y75 value (no ‡ mark)) [nM],Ventricular EC25 ([3]; Y75 value (no ‡ mark)) [µM],Skeletal EC25 ([1]; Y75 value) [µM],"Atrial EC25 [2, 4] [nM]",Ventricular EC25 ([3]; Y75 value) [µM],also measured
"C[C@H](NC(=O)[C@@H](C)c1cc2cc(F)ccc2[nH]c1=O)c1ccc(F)cc1F (single isomer, unassigned) [compound 2608]",100.00,100000,,,,,"Ventricular EC25 [3, 5]: 44.26‡ μM"
"Cc1nccc2[nH]c(=O)c(C3(C(=O)N[C@@H](C)c4ccc(C#N)cc4F)CC3)c(C)c12 (single isomer, unassigned) [compound 3512]",,,,0.71,1650,,"Ventricular EC25 (Y125 value, marked ‡) ([3]; Y125 value, not a Y75 value): 100.00‡ μM"
"Cc1c(C2(C(=O)N[C@@H](C)c3ncc(C#N)cc3F)CC2)c(=O)[nH]c2cccc(C#N)c12 (single isomer, unassigned) [compound 2542]",0.32,240,0.40,,,,
COc1nccc2[nH]c(=O)c(CC(=O)N[C@@H](C)c3ccc(F)cc3F)cc12 [compound 434],,,,0.13,650,3.84,
Cc1ccncc1[C@H](C)NC(=O)Cc1c(C)c2c(C)c(F)ccc2[nH]c1=O [compound 1047],100,100000,1.13,,,,
"Cc1c(CC(=O)N[C@@H]2COc3cccnc32)c(=O)[nH]c2ccnc(C#N)c12 (single isomer, unassigned) [compound 212]",,,,2.21,14710,35.35,
Cc1cc(C#N)cnc1[C@@H](C)NC(=O)Cc1c(O)c2c(C)c(F)ccc2[nH]c1=O [compound 1122],6.95,9160,38.45,,,,
Cc1c(CC(=O)N[C@H](C)c2ccc(C#N)nn2)c(=O)[nH]c2ccc(F)c(F)c12 [compound 1133],0.04,90,0.14,,,,
Cc1nccc2[nH]c(=O)c(CC(=O)N[C@H](C)c3ccc(C#N)cc3F)c(F)c12 [compound 148],,,,2.55,1990,3.02,
"Cc1c(C(F)(F)C(=O)N[C@@H](C)c2ncc(C#N)cn2)c(=O)[nH]c2cccc(C#N)c12 (single isomer, unassigned) [compound 4839]",0.13,1670,1.85,,,,
C[C@H](NC(=O)Cc1c(C2CC2)c2cc(F)ccc2[nH]c1=O)c1ccc(F)cc1F [compound 114],0.06,3860,4.54,,,,
C[C@H](NC(=O)Cc1c(C#N)c2cc(F)ccc2[nH]c1=O)c1ncc(C#N)cc1F [compound 1095],0.06,180,0.42,,,,
Cc1cc([C@@H](C)NC(=O)Cc2c(C)c3cc(F)ccc3[nH]c2=O)ncc1F [compound 1060],100.00,13110,100.00,,,,
"Cc1nccc2[nH]c(=O)c([C@H](C)C(=O)N[C@@H](C)c3ccc(F)cc3F)c(C)c12 (single isomer, unassigned) [compound 398]",,,,0.23,2730,59.63,
"N#Cc1cnc2c(c1)CC[C@H]2NC(=O)Cc1cc2c(F)c(F)ccc2[nH]c1=O (single isomer, unassigned) [compound 7]",0.81,3800,1.27,,,,
"C[C@H](NC(=O)Cc1cc2c(F)c(F)ccc2[nH]c1=O)c1ncc(C#N)cn1 (single isomer, unassigned) [compound 2072]",0.35,680,11.13,,,,
